In patent US8680281B2, “Lactam inhibitors of 11-β-hydroxysteroid dehydrogenase 1” (Vitae Pharmaceuticals, Inc., priority 2008, dated 2014):

Target: human 11β-HSD1 (Homo sapiens, UniProt P28845)
Experiment: Biological Test Example 1: inhibition of a microsomal preparation of 11β-HSD1 (SPA)
Type: biochemical
Settings: microsomes from CHO cells overexpressing human 11β-HSD1; for inhibition at 0.1 µM: at 100 nM; for IC50: read-out: IC50 Range

Chain of human 11β-HSD1 (P28845 whole entry): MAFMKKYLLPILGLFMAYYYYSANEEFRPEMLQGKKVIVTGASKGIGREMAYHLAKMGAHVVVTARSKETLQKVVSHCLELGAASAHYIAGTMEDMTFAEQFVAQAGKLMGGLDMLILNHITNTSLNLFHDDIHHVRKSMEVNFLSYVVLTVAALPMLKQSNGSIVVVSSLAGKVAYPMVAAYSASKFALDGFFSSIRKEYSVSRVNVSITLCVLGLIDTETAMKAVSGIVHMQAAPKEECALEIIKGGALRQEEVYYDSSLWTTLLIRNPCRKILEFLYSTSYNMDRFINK

SMILES	inhibition at 0.1 µM [%]	IC50 [nM]
C[C@@H](c1ccc(Br)cc1)N1CC[C@](CCO)(c2ccccc2)CC1=O (single isomer, unassigned) [EXAMPLE 2 Isomer 1]	101	< 100
C[C@@H](c1ccc(Br)cc1)N1CC[C@@](CCO)(c2ccccc2)CC1=O (single isomer, unassigned) [EXAMPLE 2 Isomer 2]	73.8	< 100
C[C@@H](c1ccc(-c2ccc(F)cc2)cc1)N1CC[C@](CCO)(c2ccccc2)CC1=O (single isomer, unassigned) [EXAMPLE 3 Isomer 1]	97.9	< 100
C[C@@H](c1ccc(-c2ccc(F)cc2)cc1)N1CC[C@@](CCO)(c2ccccc2)CC1=O (single isomer, unassigned) [EXAMPLE 3 Isomer 2]	61.3	< 100
C[C@@H](c1ccc(Br)cc1)N1CC[C@](CCC(N)=O)(c2ccc(F)cc2)CC1=O (single isomer, unassigned) [EXAMPLE 4 Isomer 1]	96.8	< 100
C[C@@H](c1ccc(Br)cc1)N1CC[C@@](CCC(N)=O)(c2ccc(F)cc2)CC1=O (single isomer, unassigned) [EXAMPLE 4 Isomer 2]	27.8	> 100
C[C@@H](c1ccc(-c2ccc(=O)n(C)c2)cc1)N1CC[C@](CCCO)(c2ccc(F)cc2)CC1=O (single isomer, unassigned) [EXAMPLE 5 Isomer 1]	94	< 100
C[C@@H](c1ccc(-c2ccc(=O)n(C)c2)cc1)N1CC[C@@](CCCO)(c2ccc(F)cc2)CC1=O (single isomer, unassigned) [EXAMPLE 5 Isomer 2]	10.7	> 100
CC[C@@H](c1ccc(Br)cc1)N1CC[C@](CC(C)(C)O)(c2ccccc2)CC1=O (single isomer, unassigned) [EXAMPLE 6 Isomer 1]	98.3	< 100
CC[C@@H](c1ccc(Br)cc1)N1CC[C@@](CC(C)(C)O)(c2ccccc2)CC1=O (single isomer, unassigned) [EXAMPLE 6 Isomer 2]	82.6	< 100
C[C@@H](c1ccc(Br)cc1)N1CC[C@](CC(C)(C)O)(c2ccccc2)CC1=O [EXAMPLE 7, (R)-1-((S)-1-(4-bromophenyl)ethyl)-4-(2-hydroxy-2-methylpropyl)-4-phenylpiperidin-2-one]	98	< 100
C[C@@H](c1ccc(-c2ccn(C)c(=O)c2)cc1)N1CC[C@](CC(C)(C)O)(c2ccccc2)CC1=O [EXAMPLE 8, 4-(4-((S)-1-((R)-4-(2-hydroxy-2-methylpropyl)-2-oxo-4-phenylpiperidin-1-yl)ethyl)phenyl)-1-methylpyridin-2(1H)-one]	93	< 100
C[C@@H](c1ccc(-c2ccc(=O)n(C)c2)cc1)N1CC[C@](CC(C)(C)O)(c2ccccc2)CC1=O [EXAMPLE 9, 5-(4-((S)-1-((R)-4-(2-hydroxy-2-methylpropyl)-2-oxo-4-phenylpiperidin-1-yl)ethyl)phenyl)-1-methylpyridin-2(1H)-one]	92.7	< 100
C[C@@H](c1ccc(Br)cc1)N1CC[C@](CC(C)(C)C#N)(c2ccccc2)CC1=O [EXAMPLE 10, 3-((S)-1-((S)-1-(4-bromophenyl)ethyl)-2-oxo-4-phenylpiperidin-4-yl)-2,2-dimethylpropanenitrile]	96	< 100
C[C@@H](c1ccc(Br)cc1)N1CC[C@](CC(C)(C)C(N)=O)(c2ccccc2)CC1=O [EXAMPLE 11, 3-((S)-1-((S)-1-(4-bromophenyl)ethyl)-2-oxo-4-phenylpiperidin-4-yl)-2,2-dimethylpropanamide]	95.5	< 100
C[C@@H](c1ccc(-c2cc[nH]c(=O)c2)cc1)N1CC[C@](CC(C)(C)O)(c2ccccc2)CC1=O [EXAMPLE 12, 4-(4-((S)-1-((R)-4-(2-hydroxy-2-methylpropyl)-2-oxo-4-phenylpiperidin-1-yl)ethyl)phenyl)pyridin-2(1H)-one]	95.9	< 100
C[C@@H](c1ccc(-c2ccc(=O)[nH]c2)cc1)N1CC[C@](CC(C)(C)O)(c2ccccc2)CC1=O [EXAMPLE 13, 5-(4-((S)-1-((R)-4-(2-hydroxy-2-methylpropyl)-2-oxo-4-phenylpiperidin-1-yl)ethyl)phenyl)pyridin-2(1H)-one]	94.3	< 100
